Measurements published in patent US20130096119A1, “Isoquinolin-3-Ylurea Derivatives” (priority 2010, published 2013).

test system: S. pneumoniae ATCC 49619; test: Minimal inhibitory concentration (MIC) by microdilution method (CLSI M7-A7); assay type: cell-based, Streptococcus pneumoniae; settings: Streptococcus pneumoniae, ATCC49619, cation-adjusted Mueller-Hinton Broth supplemented with 3% (v/v) lysed horse blood
Description: Minimal inhibitory concentrations (MICs; mg/l) were determined in cation-adjusted Mueller-Hinton Broth (supplemented with 3% (v/v) lysed horse blood for testing Streptococcus pneumoniae) by a microdilution method following the description given in “Methods for Dilution Antimicrobial Susceptibility Tests for Bacteria that Grow Aerobically”, Approved standard, 7th ed., Clinical and Laboratory Standards Institute (CLSI) Document M7-A7, Wayne, Pa., USA, 2006.

MIC, 4 µg/mL:
CCNC(=O)Nc1cc2cccc(COc3cccc(O)c3)c2cn1.Cl [Example 213, 1-ethyl-3-[8-(3-hydroxy-phenoxymethyl)-isoquinolin-3-yl]-urea hydrochloride]
CCNC(=O)Nc1cc2cc(NCc3ccc(-n4cnc(C)n4)cc3)cc(C)c2cn1.Cl [Example 131, 1-ethyl-3-{8-methyl-6-[4-(3-methyl-[1,2,4]triazol-1-yl)-benzylamino]-isoquinolin-3-yl}-urea hydrochloride]
CCNC(=O)Nc1cc2cccc(Cn3ccnc3C(=O)O)c2cn1 [Example 294, 1-[3-(3-ethyl-ureido)-isoquinolin-8-ylmethyl]-1H-imidazole-2-carboxylic acid]
CCNC(=O)Nc1cc2c(F)ccc(C)c2cn1 [Example 60, 1-ethyl-3-(5-fluoro-8-methyl-isoquinolin-3-yl)-urea]

MIC, 0.25 µg/mL:
CCNC(=O)Nc1cc2c(F)c(-c3cncc(C)c3)cc(Nc3cccnc3)c2cn1 [Example 235, 1-ethyl-3-[5-fluoro-6-(5-methyl-pyridin-3-yl)-8-(pyridin-3-ylamino)-isoquinolin-3-yl]urea]
CCNC(=O)Nc1cc2cc(-c3cncc(C)c3)cc(Nc3cccnc3)c2cn1 [Example 237, 1-ethyl-3-[6-(5-methyl-pyridin-3-yl)-8-(pyridin-3-ylamino)-isoquinolin-3-yl]-urea]
CCNC(=O)Nc1cc2c(-c3ccnc(C)c3)ccc(Nc3cccnc3)c2cn1 [Example 229, 1-ethyl-3-[5-(2-methyl-pyridin-4-yl)-8-(pyridin-3-ylamino)-isoquinolin-3-yl]-urea]

MIC, 2 µg/mL:
CCNC(=O)Nc1cc2c(-c3ccnc(C)c3)ccc(C)c2cn1 [Example 40, 1-ethyl-3-[8-methyl-5-(2-methyl-pyridin-4-yl)-isoquinolin-3-yl]-urea]
CCNC(=O)Nc1cc2cccc(NC(=O)c3ccc[nH]3)c2cn1.Cl [Example 182, 1H-pyrrole-2-carboxylic acid [3-(3-ethyl-ureido)-isoquinolin-8-yl]-amide hydrochloride]
CCNC(=O)Nc1cc2cccc(CNc3cc(C)ns3)c2cn1 [Example 192, 1-ethyl-3-{8-[(3-methyl-isothiazol-5-ylamino)-methyl]-isoquinolin-3-yl}-urea]
CCNC(=O)Nc1cc2cc(-c3ccco3)cc(C)c2cn1 [Example 78, 1-ethyl-3-(6-furan-2-yl-8-methyl-isoquinolin-3-yl)-urea]

MIC, 0.5 µg/mL:
CCNC(=O)Nc1cc2cc(-c3ccc(OC)nc3)cc(C)c2cn1 [Example 89, 1-ethyl-3-[6-(6-methoxy-pyridin-3-yl)-8-methyl-isoquinolin-3-yl]-urea]
CCNC(=O)Nc1cc2cc(-c3ccc(CO)cc3)cc(C)c2cn1 [Example 15, 1-ethyl-3-[6-(4-hydroxymethyl-phenyl)-8-methyl-isoquinolin-3-yl]-urea]
CCNC(=O)Nc1cc2c(-c3ccnc(N)c3)ccc(Nc3cccnc3)c2cn1 [Example 233, 1-[5-(2-amino-pyridin-4-yl)-8-(pyridin-3-ylamino)-isoquinolin-3-yl]-3-ethyl-urea]
CCCNc1cc(Nc2cccnc2)c2cnc(NC(=O)NCC)cc2c1 [Example 238, 1-ethyl-3-[6-propylamino-8-(pyridin-3-ylamino)-isoquinolin-3-yl]-urea]
CCNC(=O)Nc1cc2c(-c3cn[nH]c3)ccc(C)c2cn1.Cl [Example 281, 1-ethyl-3-[8-methyl-5-(1H-pyrazol-4-yl)-isoquinolin-3-yl]urea hydrochloride]
CCNC(=O)Nc1cc2c(-c3ccncc3)ccc(Nc3cccc(OC)n3)c2cn1 [Example 217, 1-ethyl-3-[8-(6-methoxy-pyridin-2-ylamino)-5-pyridin-4-yl-isoquinolin-3-yl]-urea]
CCNC(=O)Nc1cc2c(F)c(NCc3ccccc3)cc(C)c2cn1 [Example 57, 1-(6-benzylamino-5-fluoro-8-methyl-isoquinolin-3-yl)-3-ethyl-urea]
CCNC(=O)Nc1cc2c(-c3ccc(CO)cc3)ccc(Oc3cccnc3)c2cn1 [Example 221, 1-ethyl-3-[5-(4-hydroxymethyl-phenyl)-8-(pyridin-3-yloxy)-isoquinolin-3-yl]-urea]

MIC, 16 µg/mL:
CCNC(=O)Nc1cc2c(F)ccc(Br)c2cn1 [Example 32, 1-(8-bromo-5-fluoro-isoquinolin-3-yl)-3-ethyl-urea]

MIC, ≤ 0.031 µg/mL:
CCNC(=O)Nc1cc2cc(NC(=O)c3cccc(N(C)C)c3)cc(Nc3cccnc3)c2cn1 [Example 241, 3-dimethylamino-N-[3-(3-ethyl-ureido)-8-(pyridin-3-ylamino)-isoquinolin-6-yl]-benzamide]

MIC, 8 µg/mL:
CCNC(=O)Nc1cc2c(-c3cccnn3)ccc(C)c2cn1.Cl [Example 282, 1-ethyl-3-(8-methyl-5-pyridazin-3-yl-isoquinolin-3-yl)-urea hydrochloride]
CCNC(=O)Nc1cc2cc(NCc3cccc(C(=O)OC)c3)cc(C)c2cn1 [Example 126, 3-{[3-(3-ethyl-ureido)-8-methyl-isoquinolin-6-ylamino]-methyl}-benzoic acid methyl ester]
CCNC(=O)Nc1cc2cccc(Nc3ccc(C)c(C(=O)OC)c3)c2cn1 [Example 264, 5-[3-(3-ethyl-ureido)-isoquinolin-8-ylamino]-2-methyl-benzoic acid methyl ester]
CCNC(=O)Nc1cc2cc(NCc3ccc(S(=O)(=O)NC)cc3)cc(C)c2cn1 [Example 189, 4-{[3-(3-ethyl-ureido)-8-methyl-isoquinolin-6-ylamino]-methyl}-N-methyl-benzenesulfonamide]
CCNC(=O)Nc1cc2cccc(Nc3cccc(CC(=O)NCc4ccccc4)c3)c2cn1.Cl [Example 210, N-benzyl-2-{3-[3-(3-ethyl-ureido)-isoquinolin-8-ylamino]phenyl}-acetamide hydrochloride]
CCNC(=O)Nc1cc2cccc(COc3ccccc3C(=O)OC)c2cn1.Cl [Example 258, 2-[3-(3-ethyl-ureido)-isoquinolin-8-ylmethoxy]-benzoic acid methyl ester hydrochloride]

MIC, 1 µg/mL:
CCNC(=O)Nc1cc2c(-c3ccc(C(=O)N(C)C)cc3)ccc(C)c2cn1 [Example 5, 4-[3-(3-ethyl-ureido)-8-methyl-isoquinolin-5-yl]-N,N-dimethyl-benzamide]
CCNC(=O)Nc1cc2c(F)c(-c3ccc(S(N)(=O)=O)cc3)cc(Cl)c2cn1 [Example 111, 4-[8-chloro-3-(3-ethyl-ureido)-5-fluoro-isoquinolin-6-yl]-benzenesulfonamide]
CCNC(=O)Nc1cc2c(F)c(-c3ccccn3)cc(C)c2cn1 [Example 48, 1-ethyl-3-(5-fluoro-8-methyl-6-pyridin-2-yl-isoquinolin-3-yl)-urea]
CCNC(=O)Nc1cc2c(-c3cscc3C)ccc(C)c2cn1 [Example 64, 1-ethyl-3-[8-methyl-5-(4-methyl-thiophen-3-yl)-isoquinolin-3-yl]-urea]

same assay, conditions: cation-adjusted Mueller-Hinton Broth supplemented with 3% (v/v) lysed horse blood

MIC for S. pneumoniae ATCC 49619, 8 mg/L:
1-[8-(2,4-dimethyl-imidazol-1-ylmethyl)-isoquinolin-3-yl]-3-ethyl-urea and 1-[8-(2,5-dimethyl-imidazol-1-ylmethyl)-isoquinolin-3-yl]-3-ethyl-urea [Example 296]
